For twelve compounds, inhibition results are on record in EP3383875B1, “3-PYRIMIDINYL PYRROLO [2,3-B] PYRIDINE AS ANTICANCER AGENTS AND THE PROCESS FOR THE PREPARATION THEREOF” (Council Of Scientific & Industrial Research, priority 2015, dated 2017).

The structures appear in SMILES notation. Like-named read-outs stand apart in the source and are kept apart here. Bounds are passed on as bounds.

One assay addresses CDK-2/cyclin A (Homo sapiens, UniProt P24941). The assay can be described thus: CDK inhibition assay, CDK-2/cyclin A against Histone HI, 33P-ATP. It counts as biochemical. The conditions noted are these: at 500 nM. Put shortly:
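CDK-2/cyclin A (5-20 mU) phosphorylating Histone HI (1 mg/ml) in 50 mM Hepes pH 7.5, 100 mM NaCl, 10 mM Mg acetate, 0.02 mM [33P-γ-ATP], 30 min at room temperature. Stopped with orthophosphoric acid, captured on P81 filters for radiometric readout.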

The target in the next assay is CDK-9/Cyclin T1 (Homo sapiens, UniProt P50750). The experiment in a line: CDK inhibition assay, CDK-9/Cyclin T1 against substrate peptide, 33P-ATP. As to conditions: at 500 nM. It counts as biochemical. The protocol:
(50-1000 cpm/pmole) and incubated for 30 min at room temperature. Assays were stopped by addition of 5 µl of 0.5 M (3%) orthophosphoric acid and then harvested onto P81 Unifilter plates with a wash buffer of 50 mM orthophosphoric acid.

For a further assay, the system named is MCF-7. The experiment in a line: MTT assay on cancer cell line MCF-7. The assay is classed as cell-based, Human. As to conditions: Homo sapiens. Here is the method:
(§1) Cell culture, growth conditions and treatments. […] Different molecules were dissolved in DMSO and were delivered to cell cultures in complete medium.

The next assay relates to PC-3. The assay can be described thus: MTT assay on cancer cell line PC-3. The conditions noted are these: Homo sapiens. It counts as cell-based, human. Here is the method:
as §1

A further assay deals with MDA-MB435. The assay can be described thus: MTT assay on cancer cell line MDA-MB435. It counts as cell-based, Human. As to conditions: Homo sapiens, MDA-MB-435, MDA-MB435, at 10µM, read-out: In vitro cell inhibition, % of inhibition, MDA-MB435. Here is the method: as §1
Another assay deals with HCT-116. The experiment in a line: MTT assay on cancer cell line HCT-116. It counts as cell-based, human. As to conditions: Homo sapiens, at 10µM. Here is the method: as §1
The subject of another assay is SHSY-5Y. The assay can be described thus: MTT assay on cancer cell line SHSY-5Y. The assay is classed as cell-based, human. As to conditions: Homo sapiens, SH-SY5Y. Here is the method: as §1
Where [1] appears, read: Table-7, read-out: In vitro CDK2 % of inhibition.
Where [2] appears, read: read-out: inhibition against CDK2.
[3] abbreviates: Table-7, read-out: In vitro CDK9 % of inhibition.
[4] abbreviates: read-out: inhibition against CDK9.
Setting [5] is: MCF7, MCF-7, Table 8, read-out: In vitro cell inhibition, % of inhibition, MCF-7.
Setting [6] is: MCF7, read-out: inhibition against MCF-7 cell lines.
The mark [7] stands for this setting: Table 8, read-out: In vitro cell inhibition, % of inhibition, PC-3.
Where [8] appears, read: Table 8, read-out: In vitro cell inhibition, % of inhibition, HCT-116.
[9] abbreviates: SHSY-5Y, Table 8, read-out: In vitro cell inhibition, % of inhibition, SHSY-5Y.
The mark [10] stands for this setting: read-out: inhibition against SHSY-5Y cell lines.
The mark [11] stands for this setting: MCF7, MCF-7, Table 9 (for reference), read-out: In vitro cell inhibition, % of inhibition, MCF-7.
Setting [12] is: Table 9 (for reference), read-out: In vitro cell inhibition, % of inhibition, PC-3.
[13] abbreviates: Table 9 (for reference), read-out: In vitro cell inhibition, % of inhibition, HCT-116.
[14] abbreviates: SHSY-5Y, Table 9 (for reference), read-out: In vitro cell inhibition, % of inhibition, SHSY-5Y.

Sequence of CDK-9/Cyclin T1 (P50750 whole entry): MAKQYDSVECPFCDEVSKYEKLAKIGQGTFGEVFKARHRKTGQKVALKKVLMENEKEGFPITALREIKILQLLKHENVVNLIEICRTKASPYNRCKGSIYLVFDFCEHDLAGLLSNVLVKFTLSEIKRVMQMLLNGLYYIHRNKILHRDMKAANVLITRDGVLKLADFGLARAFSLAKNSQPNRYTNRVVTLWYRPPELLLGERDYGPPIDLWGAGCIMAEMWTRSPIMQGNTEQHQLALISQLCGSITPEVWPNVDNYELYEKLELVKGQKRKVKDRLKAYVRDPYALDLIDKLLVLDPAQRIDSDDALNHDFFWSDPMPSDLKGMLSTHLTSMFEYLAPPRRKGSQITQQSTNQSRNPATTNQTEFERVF
Sequence of CDK-9/Cyclin T1 (O60563 whole entry partner): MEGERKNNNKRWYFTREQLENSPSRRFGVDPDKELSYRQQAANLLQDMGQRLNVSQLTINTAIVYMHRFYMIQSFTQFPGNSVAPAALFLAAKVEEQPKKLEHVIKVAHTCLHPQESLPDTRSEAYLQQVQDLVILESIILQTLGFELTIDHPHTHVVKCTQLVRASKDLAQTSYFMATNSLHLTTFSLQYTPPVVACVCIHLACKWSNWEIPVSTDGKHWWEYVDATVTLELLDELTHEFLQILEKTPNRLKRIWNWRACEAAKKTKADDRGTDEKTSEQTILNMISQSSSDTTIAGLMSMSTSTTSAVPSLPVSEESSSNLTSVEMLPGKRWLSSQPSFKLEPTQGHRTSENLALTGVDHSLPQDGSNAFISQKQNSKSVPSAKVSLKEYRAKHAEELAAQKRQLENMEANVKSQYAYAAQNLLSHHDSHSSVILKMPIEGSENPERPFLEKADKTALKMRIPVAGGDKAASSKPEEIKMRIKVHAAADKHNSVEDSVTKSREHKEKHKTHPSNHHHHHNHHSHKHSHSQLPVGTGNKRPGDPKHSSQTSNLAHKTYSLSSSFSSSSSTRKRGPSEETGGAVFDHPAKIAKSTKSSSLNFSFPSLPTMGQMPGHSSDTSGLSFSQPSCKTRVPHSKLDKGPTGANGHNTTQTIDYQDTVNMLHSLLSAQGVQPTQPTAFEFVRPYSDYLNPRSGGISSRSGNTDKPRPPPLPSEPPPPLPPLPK

On to `c1cncc(-c2cnc3[nH]cc(-c4ccnc(NC5CCCCCC5)n4)c3c2)c1` [1A55, N-cycloheptyl-4-(5-(pyridin-3-yl)-1H-pyrrolo[2,3-b]pyridin-3-yl)pyrimidin-2-amine], for which the inhibition at 0.5 µM at CDK-2/cyclin A (setting [1]), on CDK-2/cyclin A (setting [2]), on CDK-9/Cyclin T1 (setting [3]) and on CDK-9/Cyclin T1 (setting [4]) was more than 70% each time. Further, the inhibition at 10 µM is less than 50% with MCF-7 (setting [5]); less than 50% with MCF-7 (setting [6]); more than 50% with PC-3 (setting [7]); more than 50% with MDA-MB435 (Table 8); more than 50% with HCT-116 (setting [8]); more than 70% in the assay on SHSY-5Y (setting [9]). The inhibition at 10 µM in the assay on SHSY-5Y (setting [10]) is more than 70%.
In the case of `FC(F)(F)c1ccc(-c2cnc3[nH]cc(-c4ccnc(NCCc5ccccc5)n4)c3c2)cc1` [1B1, N-phenethyl-4-(5-(4-(trifluoromethyl)phenyl)-1H-pyrrolo[2,3-b]pyridin-3-yl)pyrimidin-2-amine], the inhibition at 0.5 µM at CDK-2/cyclin A (setting [1]) and on CDK-9/Cyclin T1 (setting [3]) was less than 50% in each case. For the same compound, the inhibition at 10 µM was more than 50% with MCF-7 (setting [5]); more than 50% in the assay with MCF-7 (setting [6]); more than 70% in the assay with PC-3 (setting [7]); less than 50% in the assay on MDA-MB435 (Table 8); more than 50% in the assay with HCT-116 (setting [8]); more than 70% in the assay with SHSY-5Y (setting [9]). Further, in the assay with SHSY-5Y (setting [10]), the inhibition at 10 µM was more than 70%.
`Fc1ccc(-c2cnc3[nH]cc(-c4ccnc(NCCc5ccccc5)n4)c3c2)cc1` [1B2, 4-(5-(4-fluorophenyl)-1H-pyrrolo[2,3-b]pyridin-3-yl)-N-phenethylpyrimidin-2-amine]: the inhibition at 0.5 µM on CDK-2/cyclin A (setting [1]), at CDK-2/cyclin A (setting [2]), on CDK-9/Cyclin T1 (setting [3]) and at CDK-9/Cyclin T1 (setting [4]) was more than 50% each time. The inhibition at 10 µM is more than 50% in the assay on MCF-7 (setting [5]); less than 50% with PC-3 (setting [7]); more than 50% in the assay with MDA-MB435 (Table 8); more than 50% in the assay with HCT-116 (setting [8]); more than 70% in the assay on SHSY-5Y (setting [9]); more than 70% with SHSY-5Y (setting [10]).
Take `Fc1cccc(-c2cnc3[nH]cc(-c4ccnc(NCCc5ccccc5)n4)c3c2)c1` [1B5, 4-(5-(3-fluorophenyl)-1H-pyrrolo[2,3-b]pyridin-3-yl)-N-phenethylpyrimidin-2-amine]: the inhibition at 0.5 µM at CDK-2/cyclin A (setting [1]) and at CDK-9/Cyclin T1 (setting [3]) was more than 50% in each case. The inhibition at 10 µM in the assay with MCF-7 (setting [5]), in the assay with MCF-7 (setting [6]), with PC-3 (setting [7]), with PC-3 (read-out: inhibition against PC-3 cell lines), with MDA-MB435 (Table 8) and in the assay with HCT-116 (setting [8]) was more than 50% each time. Also, the inhibition at 10 µM in the assay with SHSY-5Y (setting [9]) and in the assay with SHSY-5Y (setting [10]) was more than 70% each time.
As to `COc1ccc(-c2cnc3[nH]cc(-c4ccnc(NCCc5ccccc5)n4)c3c2)cc1` [1B11, 4-(5-(4-methoxyphenyl)-1H-pyrrolo[2,3-b]pyridin-3-yl)-N-phenethylpyrimidin-2-amine], the inhibition at 0.5 µM on CDK-2/cyclin A (setting [1]), on CDK-2/cyclin A (setting [2]), on CDK-9/Cyclin T1 (setting [3]) and on CDK-9/Cyclin T1 (setting [4]) was more than 50% throughout. Moreover, the inhibition at 10 µM in the assay with MCF-7 (setting [5]) is more than 50%; in the assay on MCF-7 (setting [6]) it was more than 50%; in the assay on PC-3 (setting [7]), less than 50%; in the assay on MDA-MB435 (Table 8), more than 50%; with HCT-116 (setting [8]), more than 50%; in the assay with SHSY-5Y (setting [9]), more than 50%.
Turning to `Clc1ccc(-c2cnc3[nH]cc(-c4ccnc(NCCc5ccccc5)n4)c3c2)cc1` [1B12, 4-(5-(4-chlorophenyl)-1H-pyrrolo[2,3-b]pyridin-3-yl)-N-phenethylpyrimidin-2-amine], the inhibition at 0.5 µM at CDK-2/cyclin A (setting [1]), on CDK-2/cyclin A (setting [2]), at CDK-9/Cyclin T1 (setting [3]) and at CDK-9/Cyclin T1 (setting [4]) was more than 70% in each case. In addition, the inhibition at 10 µM was more than 50% in the assay with MCF-7 (setting [5]); more than 70% in the assay on PC-3 (setting [7]); less than 50% in the assay with MDA-MB435 (Table 8); more than 50% with HCT-116 (setting [8]); more than 70% in the assay with SHSY-5Y (setting [9]); more than 70% in the assay with SHSY-5Y (setting [10]).
`c1ccc(CCNc2nccc(-c3c[nH]c4ncc(-c5cccnc5)cc34)n2)cc1` [1B15, N-phenethyl-4-(5-(pyridin-3-yl)-1H-pyrrolo[2,3-b]pyridin-3-yl)pyrimidin-2-amine]: the inhibition at 0.5 µM on CDK-2/cyclin A (setting [1]), on CDK-2/cyclin A (setting [2]), at CDK-9/Cyclin T1 (setting [3]) and at CDK-9/Cyclin T1 (setting [4]) was more than 70% each time. The inhibition at 10 µM in the assay with MCF-7 (setting [5]) is more than 50%; with MCF-7 (setting [6]), more than 50%; with PC-3 (setting [7]), less than 50%; in the assay with MDA-MB435 (Table 8), less than 50%; in the assay on HCT-116 (setting [8]), more than 50%; in the assay with SHSY-5Y (setting [9]), more than 70%. Besides, the inhibition at 10 µM in the assay with SHSY-5Y (setting [10]) was more than 70%.
Regarding `Nc1nccc(-c2c[nH]c3ncc(-c4cccc(C(F)(F)F)c4)cc23)n1` [1C4, 4-(5-(3-(trifluoromethyl)phenyl)-1H-pyrrolo[2,3-b]pyridin-3-yl)pyrimidin-2-amine], the inhibition at 0.5 µM at CDK-2/cyclin A (setting [1]), on CDK-2/cyclin A (setting [2]), at CDK-9/Cyclin T1 (setting [3]) and on CDK-9/Cyclin T1 (setting [4]) was more than 70% throughout. Further, the inhibition at 10 µM was more than 70% in the assay on MCF-7 (setting [11]); more than 70% with MCF-7 (setting [6]); less than 50% in the assay on PC-3 (setting [12]); more than 70% with MDA-MB435 (Table 9 (for reference)); more than 70% with HCT-116 (setting [13]); more than 70% in the assay with SHSY-5Y (setting [14]). Moreover, in the assay with SHSY-5Y (setting [10]), the inhibition at 10 µM is more than 70%.
`Cc1cccc(-c2cnc3[nH]cc(-c4ccnc(N)n4)c3c2)c1` [1C7, 4-(5-(m-tolyl)-1H-pyrrolo[2,3-b]pyridin-3-yl)pyrimidin-2-amine]: the inhibition at 0.5 µM at CDK-2/cyclin A (setting [1]), on CDK-2/cyclin A (setting [2]), at CDK-9/Cyclin T1 (setting [3]) and on CDK-9/Cyclin T1 (setting [4]) was more than 70% each time. Further, the inhibition at 10 µM with MCF-7 (setting [11]) is more than 50%; with MCF-7 (setting [6]) it was more than 50%; in the assay on PC-3 (setting [12]), more than 50%; with MDA-MB435 (Table 9 (for reference)), more than 70%; with HCT-116 (setting [13]), more than 70%; in the assay on SHSY-5Y (setting [14]), more than 70%. Also, the inhibition at 10 µM in the assay with SHSY-5Y (setting [10]) is more than 70%.
Consider `CSc1ccccc1-c1cnc2[nH]cc(-c3ccnc(N)n3)c2c1` [1C9, 4-(5-(2-(methylthio)phenyl)-1H-pyrrolo[2,3-b]pyridin-3-yl)pyrimidin-2-amine], for which the inhibition at 0.5 µM at CDK-2/cyclin A (setting [1]), at CDK-2/cyclin A (setting [2]), at CDK-9/Cyclin T1 (setting [3]) and on CDK-9/Cyclin T1 (setting [4]) was more than 70% each time. Besides, the inhibition at 10 µM was more than 70% with MCF-7 (setting [11]); more than 70% with MCF-7 (setting [6]); more than 70% in the assay with PC-3 (setting [12]); more than 70% in the assay with MDA-MB435 (Table 9 (for reference)); more than 50% in the assay on HCT-116 (setting [13]); more than 70% in the assay on SHSY-5Y (setting [14]). The inhibition at 10 µM in the assay on SHSY-5Y (setting [10]) was more than 70%.
Consider `CCc1ccccc1-c1cnc2[nH]cc(-c3ccnc(N)n3)c2c1` [1C10, 4-(5-(2-ethylphenyl)-1H-pyrrolo[2,3-b]pyridin-3-yl)pyrimidin-2-amine], for which the inhibition at 0.5 µM at CDK-2/cyclin A (setting [1]), at CDK-2/cyclin A (setting [2]), at CDK-9/Cyclin T1 (setting [3]) and at CDK-9/Cyclin T1 (setting [4]) was more than 70% throughout. The inhibition at 10 µM in the assay on MCF-7 (setting [11]), in the assay with MCF-7 (setting [6]), with PC-3 (setting [12]), in the assay with MDA-MB435 (Table 9 (for reference)), with HCT-116 (setting [13]) and with SHSY-5Y (setting [14]) was more than 70% each time. Further, the inhibition at 10 µM in the assay with SHSY-5Y (setting [10]) was more than 70%.
For the compound `Nc1nccc(-c2c[nH]c3ncc(-c4cccc5ccccc45)cc23)n1` [1C14, 4-(5-(naphthalen-1-yl)-1H-pyrrolo[2,3-b]pyridin-3-yl)pyrimidin-2-amine], the inhibition at 0.5 µM at CDK-2/cyclin A (setting [1]), at CDK-2/cyclin A (setting [2]), on CDK-9/Cyclin T1 (setting [3]) and at CDK-9/Cyclin T1 (setting [4]) was more than 70% each time. Further, the inhibition at 10 µM is more than 50% in the assay with MCF-7 (setting [11]); more than 50% in the assay on MCF-7 (setting [6]); more than 70% in the assay with PC-3 (setting [12]); more than 50% in the assay with MDA-MB435 (Table 9 (for reference)); more than 70% in the assay with HCT-116 (setting [13]); more than 50% in the assay with SHSY-5Y (setting [14]).
